The values that follow come from patent publication US9963518B2, “Cyclic oligosaccharides for use in the treatment and prevention of bacterial infection” (priority 2011, dated 2018).

Values joined by “and” are separate entries in the source; they are usually repeats but may differ in a detail not shown here. Identical values can stand only once. Like-named read-outs stand apart in the source and are kept apart here.

For one assay, the target named is Wza Y110G/K375C (Escherichia coli, UniProt Q9X4B7, K375C/Y110G). Nature of the assay: Single-channel electrical recording, blockers against mutant Wza Y110G/K375C. The class given is binding, E. coli. How it is done:
The Wza pore was opened by replacing the tyrosines at position 110 that line the narrowest region of the lumen with glycine. To confirm that the currents observed indeed arose from the mutant pore, a cysteine was introduced in the α-helix barrel (Y110G/K375C) and would therefore yield a characteristic reversible blockade when derivatized with a suitable thiol-specific reagent.
The unitary conductance of the Y110G/K375C pore was determined as for wt-Wza, by measuring stepwise-insertion using the same technique referenced above. The mean open current of Y110G/K375C was determined to be +85±14.1 pA (+50 mV, n=31), corresponding to 1.70±0.28 nS (+50 mV, n=31) in conductance.
(§1) Thirteen commercial cyclodextrins (CDs) were tested for their ability to block WT-Wza and the mutant Y110G/K375C (Table 1) including, neutral, negatively charged or positively charged cyclodextrins. Testing was carried out using electrical channel recording in high salt buffer (2M KCl, 5 mM HEPES, 100 μM EDTA, 200 μM DTT) at pH 7.5.

Assay [1] relates to E. coli strain E69. Nature of the assay: LPS exposure assay, O9a LPS to O9a LPS-specific antibodies (FACS). It counts as cell-based. How it is done: The direct effect of the inhibition of K30 CPS transport on E. coli strain E69 is the appearance of defects in the capsule layer. This should in turn lead to exposure of O9a LPS at the cell surface. To test this hypothesis, the attachment of rabbit anti-O9a antibodies was quantified by flow cytometry (FACS), by using secondary fluorescent anti-rabbit antibodies. The design of the experiment is depicted schematically in FIG. 4a.
E. coli strains E69 and CWG281 were grown as described above in Example 4 and the OD600 was adjusted to 0.4. The concentrations of cyclodextrin (either am8γCD (compound 13), am6αCD (compound 3) or am7βCD (compound 10)) present in the growth media were 10 nM, 100 nM, 1 μM, 10 μM, 50 μM, 100 μM and 1 mM. 50 μL samples of each were centrifuged at 3,000×g for 10 min to remove the medium, washed with PBS and resuspended in 50 μL PBS. O9a antiserum (0.5 μL) was then added. The mixtures were incubated on ice for 1 h (to compare the effects of am6αCD, am7βCD and am8γCD on the exposure of LPS) or 2 h (for the estimation of minimum effective concentration of am8γCD required to expose LPS to antibodies), followed by centrifugation at 3,000×g for 10 min and washing with PBS. The pellets were resuspended in PBS (50 μL), to which Alexa Fluor 488 Goat Anti-Rabbit IgG secondary antibody (1 μL, Life Technologies, A11034, λex 495 nm, λem 519 nm) was added, followed by incubation for 1 h on ice. The cells were then centrifuged at 3,000×g for 10 min. The pellets were resuspended in PBS (1 mL), followed by analysis by flow cytometry (FACS) using a Becton-Dickinson FACSCalibur. 10,000 cells were analysed for each sample. Fluorescence was measured in the FL1 channel (530 nm).

A further assay has as its target mutant Wza Y110G/Y373C (Escherichia coli, UniProt Q9X4B7, Y110G/Y373C). Nature of the assay: Single-channel electrical recording, mutant Wza Y110G/Y373C. It counts as binding, E. coli. To be noted: 2M KCl buffer pH 7.5, +3 mV, n = 3, read-out: Dissociation constant (Kd) with mutant Wza pore.
Another assay has as its target mutant Wza ΔP106-A107 (Escherichia coli, UniProt Q9X4B7, DEL106-107). Nature of the assay: Single-channel electrical recording, mutant Wza ΔP106-A107. The following applies: n = 3, read-out: Dissociation constant (Kd) with mutant Wza pore. It counts as binding, E. coli.
The subject of assay [2] is E. coli strain E69. Nature of the assay: Complement-mediated killing of bacteria in human serum. The class given is cell-based. To be noted: for Complement-mediated killing of E69: 40% normal human serum, 1 h, 37° C. How it is done: This assay measured the killing of bacteria by the compounds of the invention mediated by the human complement system found in serum (incubation time 1 h, RPMI 1640, 37° C.). 10^3 cells of E. coli strain E69 or CWG281 were cultured in 40% (v/v) normal human serum (NHS, 1 mL, TCS Biosciences, CR100) or deactivated human serum (DHS) in RPMI 1640 medium (Sigma Aldrich, R8758) in 1.5 mL tubes in the presence of different concentrations of am8γCD (compound 13) at 37° C. for 1 h or 4 h. DHS was generated by heating NHS at 56° C. for 30 min. For the one-hour experiment, a portion of each culture (50 μL) was then spread onto a freshly prepared LB-Agar plate; for the four-hour experiment, the culture was firstly diluted 100 times (0, 1, 10, 40 μM), 10 times (100 μM) or not diluted (300 μM and 1 mM), and then a portion of each resulting culture (50 μL) was then spread onto a freshly prepared LB-Agar plate. The plates were incubated at 37° C. for 10 h after which colonies were counted. The total colonies of each sample were calculated by colonies/plate multiplying by times of dilution. P values were calculated from a one-tailed Student's t-test.

Another assay addresses WT Wza (Escherichia coli, UniProt Q9X4B7). Nature of the assay: Single-channel electrical recording, blockers against wt-Wza in planar lipid bilayers. The class given is binding, E. coli. To be noted: 2M KCl, 5 mM HEPES, 100 μM EDTA, 200 μM DTT, pH 7.5. How it is done: The Wt Wza transporter was tested in single-channel recording, in accordance with the procedures of Naismith (Nature 2006, 444, 226-229) for its ability to form pores in planar lipid bilayers. Sequential insertions of channels in a single orientation were used to measure the conductance of a single channel because more than one channel could insert simultaneously during the first introduction, especially when protein molecules have not properly diffused yet. Repetition of experiments helped to verify conductance of a single channel. […] After collection of 37 insertions of wt Wza channel, the current of a single channel of wt Wza in 2 M KCl buffer was determined to be 1.89±0.01 pA (n=37) on average, corresponding to 18.9±0.1 pS (n=37) in conductance.
as §1

On to `NC[C@H]1O[C@@H]2O[C@H]3[C@H](O)[C@@H](O)[C@@H](O[C@H]4[C@H](O)[C@@H](O)[C@@H](O[C@H]5[C@H](O)[C@@H](O)[C@@H](O[C@H]6[C@H](O)[C@@H](O)[C@@H](O[C@H]7[C@H](O)[C@@H](O)[C@@H](O[C@H]8[C@H](O)[C@@H](O)[C@@H](O[C@H]9[C@H](O)[C@@H](O)[C@@H](O[C@H]1[C@H](O)[C@H]2O)O[C@@H]9CN)O[C@@H]8CN)O[C@@H]7CN)O[C@@H]6CN)O[C@@H]5CN)O[C@@H]4CN)O[C@@H]3CN` [No. 12, Octacis (6-amino-6-deoxy)-γ-cyclodextrin], for which the Kd is 12.3 µM and 12 µM at Wza Y110G/K375C (Kd, interaction with mutant Wza, Y110G/K375C, +3 mV, n = 3, 2M KCl buffer pH 7.5); 570 ± 520 µM at mutant Wza Y110G/Y373C; 0.044 ± 0.025 µM on mutant Wza ΔP106-A107 (ΔP106-A107, 300 mM KCl, 5 mM HEPES, pH 7.5, +5 mV); 7.8 ± 5.2 µM at mutant Wza ΔP106-A107 (ΔP106-A107, 2M KCl buffer pH 7.5, +3 mV). Besides, at Wza Y110G/K375C (Y110G/K375C, 2M KCl, 5 mM HEPES, 100 μM EDTA, 200 μM DTT, pH 7.5), the “Interaction with mutant Wza” value was “not observed^c”. In addition, the “Binding strength relative to am7βCD” value on Wza Y110G/K375C (at different voltages) is given as no less than 10 times. Moreover, the “LPS exposure by median fluorescence intensity” value in the assay with E. coli strain E69 [1] (1 μM, antiserum incubation 2 h) stood at 5.1%; with E. coli strain E69 [1] (50 μM, antiserum incubation 1 h, relative to CWG281 positive control), 4.9%; in the assay on E. coli strain E69 [1] (1 mM, antiserum incubation 1 h, relative to CWG281 positive control), 20%. In addition, the “LPS exposure by percentage of labelled cells” value is given as 44% with E. coli strain E69 [1] (1 μM, antiserum incubation 2 h); 36% in the assay with E. coli strain E69 [1] (50 μM, antiserum incubation 1 h); 96% in the assay on E. coli strain E69 [1] (1 mM, antiserum incubation 1 h). In addition, the “Complement-mediated killing of E69” value with E. coli strain E69 [2] (15 μM) stood at 21%; in the assay with E. coli strain E69 [2] (100 μM), 51%; with E. coli strain E69 [2] (1 mM) it was 84%. Besides, the “Growth of E69” value with E. coli strain E69 [2] (1 mM, normal human serum, incubation 4 h) was “completely inhibited the growth”. Also, in the assay with E. coli strain E69 [2] (Escherichia coli, E69, normal human serum, incubation 4 h, n=3, read-out: Concentration required to kill half of the bacteria (EC50)), the EC50 was found to be 3.2 ± 0.5 µM. For the same molecule, in the assay on E. coli strain E69 [2] (compound alone at 100 μM or 1 mM, no normal human serum), the “Effect on survival of E69 in the absence of NHS” value was “no significant effect”. In addition, on WT Wza, the “Interaction with WT Wza” value is listed as “not observed”.

In general, Kd refers to the concentration at which binding is half-saturated.
